Converted amounts (≈) assume the structure as drawn.
Assays:
NCI-H1299 = experiment: Anticancer activity against human NCI-H1299 cells by MTT assay; assay type: functional, cell-based
[1] = Anticancer activity against human UKF-NB-3 cells by MTT assay; assay type: functional, cell-based
A549 [2] = experiment: Anticancer activity against human A549 cells by MTT assay; assay type: functional, cell-based
Leukemia cell = experiment: Growth inhibition of human Leukemia cell; assay type: functional
[3] = Antiproliferative activity against human HepG2 cells assessed as reduction in cell growth by MTT assay; assay type: toxicity, cell-based
L02 = experiment: Antiproliferative activity against human LO2 cells assessed as reduction in cell growth by MTT assay; assay type: functional, cell-based
MDA-MB-231 = experiment: Antiproliferative activity against human MDA-MB-231 cells assessed as reduction in cell growth by MTT assay; assay type: functional, cell-based
[4] = Antiproliferative activity against human MCF-10A cells assessed as reduction in cell growth by MTT assay; assay type: toxicity, cell-based
U-251 = experiment: Antiproliferative activity against human U-251 cells assessed as reduction in cell viability incubated for 48 hrs by CCK-8 assay; assay type: functional, cell-based; conditions: U-251, 48 h
HepG2 [5] = experiment: Antiproliferative activity against human HepG2 cells assessed as reduction in cell viability incubated for 48 hrs by CCK-8 assay; assay type: functional, cell-based; conditions: HepG2, 48 h
A549 [6] = experiment: Antiproliferative activity against human A549 cells assessed as reduction in cell viability incubated for 48 hrs by CCK-8 assay; assay type: functional, cell-based; conditions: A549, 48 h
HeLa [7] = experiment: Antiproliferative activity against human HeLa cells assessed as reduction in cell growth incubated for 48 hrs by MTT assay; assay type: functional, cell-based
K562 = experiment: Antiproliferative activity against human K562 cells assessed as reduction in cell growth incubated for 48 hrs by MTT assay; assay type: functional, cell-based; conditions: K562, 48 h
HepG2 [8] = experiment: Cytotoxicity against human HepG2 cells assessed as reduction in cell growth incubated for 24 hrs by SRB assay; assay type: functional, cell-based; conditions: HepG2, 24 h
MCF7 [9] = experiment: Cytotoxicity against human MCF7 cells assessed as reduction in cell growth incubated for 24 hrs by SRB assay; assay type: functional, cell-based; conditions: MCF7, 24 h
[10] = Antiproliferative activity against human MRC5 cells assessed as reduction in cell viability incubated for 24 hrs by MTT assay; assay type: toxicity, cell-based
A549 [11] = experiment: Antiproliferative activity against human A549 cells assessed as reduction in cell viability incubated for 24 hrs by MTT assay; assay type: functional, cell-based; conditions: A549, 24 h
AGS = experiment: Antiproliferative activity against human AGS cells assessed as reduction in cell viability incubated for 24 hrs by MTT assay; assay type: functional, cell-based
[12] = Anticancer activity against HEK293 cells assessed as reduction in cell viability incubated for 48 hrs by MTT assay; assay type: toxicity, cell-based; conditions: human
A549 [13] = experiment: Anticancer activity against human A549 cells assessed as reduction in cell viability incubated for 48 hrs by MTT assay; assay type: functional, cell-based; conditions: A549, 48 h
IMR-32 = experiment: Anticancer activity against human IMR-32 cells assessed as reduction in cell viability incubated for 48 hrs by MTT assay; assay type: functional, cell-based; conditions: IMR-32, 48 h
HeLa [14] = experiment: Anticancer activity against human HeLa cells assessed as reduction in cell viability incubated for 48 hrs by MTT assay; assay type: functional, cell-based
MCF7 [15] = experiment: Anticancer activity against human MCF7 cells at 31.25 uM relative to control; assay type: functional
MCF7 [16] = experiment: Anticancer activity against human MCF7 cells at 500 uM relative to control; assay type: functional
MCF7 [17] = experiment: Anticancer activity against human MCF7 cells at 125 uM relative to control; assay type: functional
MCF7 [18] = experiment: Anticancer activity against human MCF7 cells at 7.8 uM relative to control; assay type: functional
MCF7 [19] = experiment: Anticancer activity against human MCF7 cells at 1.5 uM relative to control; assay type: functional
MCF7 [20] = experiment: Anticancer activity against human MCF7 cells at 3.9 uM relative to control; assay type: functional
MCF7 [21] = experiment: Anticancer activity against human MCF7 cells at 1.9 uM relative to control; assay type: functional
MCF7 [22] = experiment: Anticancer activity against human MCF7 cells at 62.5 uM relative to control; assay type: functional
MCF7 [23] = experiment: Anticancer activity against human MCF7 cells at 15.6 uM relative to control; assay type: functional
[24] = Growth inhibition of human Melanoma cell; assay type: functional
[25] = Growth inhibition of human Non-small cell lung cancer cell line; assay type: functional
[26] = Growth inhibition of human Colon cancer cell line; assay type: functional
CNS carcinoma cell = experiment: Growth inhibition of human CNS carcinoma cell; assay type: functional
Caco-2 = experiment: Cytotoxicity against human Caco-2 cells assessed as reduction in cell growth measured for 24 hrs by MTT assay; assay type: functional, cell-based; conditions: Caco-2, 24 h
MCF7 [27] = experiment: Cytotoxicity against human MCF7 cells assessed as reduction in cell growth measured for 24 hrs by MTT assay; assay type: functional, cell-based; conditions: MCF7, 24 h
HepG2 [28] = experiment: Cytotoxicity against human HepG2 cells assessed as reduction in cell growth incubated for 24 hrs by MTT assay; assay type: functional, cell-based; conditions: HepG2, 24 h

## COc1ccc(C2=N[C@H](c3ccc(Cl)cc3)[C@H](c3ccc(Cl)cc3)N2C(=O)N2CCNC(=O)C2)c(OC(C)C)c1
NCI-H1299
  IC50: > 100 µg/mL
[1]
  IC50: 5.2 µg/mL (≈ 8.94 µM)
A549 [2]
  IC50: 11.1 µg/mL (≈ 19.1 µM)

## COc1ccc(Nn2c(SCC(=O)Nc3nc(-c4ccc(Cl)cc4)cs3)nc(C)c2C)cc1
Leukemia cell
  GI50: 4.15 µM

## Cc1ccc(Nn2c(SCC(=O)Nc3nc(-c4ccccc4)cs3)nc(C)c2C)cc1
Leukemia cell
  GI50: 3.91 µM

## Cc1nc(SCC(=O)Nc2nc(-c3ccc(Cl)cc3)cs2)n(Nc2ccccc2)c1C
Leukemia cell
  GI50: 3.08 µM

## c1ccc(-c2nc(-c3c[nH]c4ccccc34)[nH]c2-c2ccccc2)cc1
[3]
  IC50: 29.3 µM
L02
  IC50: 34.7 µM
MDA-MB-231
  IC50: 31.4 µM
[4]
  IC50: 31.8 µM

## CN(C)c1ccc(/C=C/c2ncc([N+](=O)[O-])n2CCOC(=O)c2nccc3ccccc23)cc1
U-251
  IC50: 0.14 µM
HepG2 [5]
  IC50: 0.17 µM
A549 [6]
  IC50: 0.43 µM

## O=C(OCCn1c([N+](=O)[O-])cnc1/C=C/c1ccc2ccccc2c1)c1nccc2ccccc12
U-251
  IC50: 0.1 µM
HepG2 [5]
  IC50: 0.11 µM
A549 [6]
  IC50: 0.32 µM

## COc1cc([C@@H]2c3cc4c(cc3[C@@H](n3ccnc3)[C@H]3COC(=O)[C@H]23)OCO4)cc(OC)c1OC
HeLa [7]
  IC50: 5.22 µM
K562
  IC50: 2.88 µM

## COc1cc([C@@H]2c3cc4c(cc3[C@@H](n3cnc([N+](=O)[O-])c3)[C@H]3COC(=O)[C@H]23)OCO4)cc(OC)c1O
K562
  IC50: 7.43 µM

## Cc1nc(S)n(-c2ccccc2)c1-c1cc(-c2ccccc2O)c(C#N)c(=O)[nH]1
HepG2 [8]
  IC50: 3 µg/mL (≈ 7.49 µM)
MCF7 [9]
  IC50: 2 µg/mL (≈ 4.99 µM)

## COc1ccc(C(=O)/C=C/c2nc3ccccc3n2C)cc1
[10]
  IC50 at 24 h: 45.9 µM
A549 [11]
  IC50: 68.1 µM
AGS
  IC50: 15.1 µM

## O=[N+]([O-])c1ccccc1-c1nc(-c2ccc(Br)cc2)c(-c2ccc(Br)cc2)[nH]1
[12]
  IC50 at 48 h: 94.3 µM
A549 [13]
  IC50: 12.5 µM
IMR-32
  IC50: 10.3 µM
HeLa [14]
  IC50: 13.6 µM

## Cc1ccc(-c2nc(-c3ccccc3)c(-c3ccccc3)n2Cc2ccc(F)cc2)cc1
MCF7 [15]
  inhibition at 31.25 µM: 47%
MCF7 [16]
  inhibition at 500 µM: 15%
MCF7 [17]
  inhibition at 125 µM: 29%
MCF7 [18]
  inhibition at 7.8 µM: 66%
MCF7 [19]
  inhibition at 1.5 µM: 90%
MCF7 [20]
  inhibition at 3.9 µM: 72%
MCF7 [21]
  inhibition at 1.9 µM: 87%
MCF7 [22]
  inhibition at 62.5 µM: 38%
MCF7 [23]
  inhibition at 15.6 µM: 53%

## Oc1ccc(-n2cnc(-c3cc(O)cc(O)c3)c2)cc1
[24]
  GI50: 12.9 µM
[25]
  GI50: 28.8 µM
[26]
  GI50: 11.5 µM
CNS carcinoma cell
  GI50: 11.5 µM
Leukemia cell
  GI50: 4.1 µM

## Fc1ccc(Cn2c(-c3ccc(Br)cc3)nc(-c3ccccc3)c2-c2ccccc2)cc1
MCF7 [15]
  inhibition at 31.25 µM: 30%
MCF7 [16]
  inhibition at 500 µM: 5%
MCF7 [17]
  inhibition at 125 µM: 20%
MCF7 [18]
  inhibition at 7.8 µM: 63%
MCF7 [19]
  inhibition at 1.5 µM: 84%
MCF7 [20]
  inhibition at 3.9 µM: 69%
MCF7 [21]
  inhibition at 1.9 µM: 75%
MCF7 [22]
  inhibition at 62.5 µM: 24%
MCF7 [23]
  inhibition at 15.6 µM: 36%

## Brc1ccc(-c2nc(-c3ccccc3)c(-c3ccccc3)[nH]2)cn1
[3]
  IC50: 26.7 µM
L02
  IC50: 22 µM
MDA-MB-231
  IC50: 17.8 µM
[4]
  IC50: 36.8 µM

## c1ccc(-c2nc(-c3ccc(OCc4cc(COc5ccc(-c6nc(-c7ccccc7)c(-c7ccccc7)[nH]6)cc5)c(COc5ccc(-c6nc(-c7ccccc7)c(-c7ccccc7)[nH]6)cc5)cc4COc4ccc(-c5nc(-c6ccccc6)c(-c6ccccc6)[nH]5)cc4)cc3)[nH]c2-c2ccccc2)cc1
Caco-2
  IC50: 34.8 µM
MCF7 [27]
  IC50: 12.6 µM
HepG2 [28]
  IC50: 19.1 µM

From ChEMBL document CHEMBL6074649, “An insight into recent developments in imidazole based heterocyclic compounds as anticancer agents: Synthesis, SARs, and mechanism of actions” (Eur J Med Chem, 2024)
